Read-outs that look alike come from different tables or passages of the source.
Target: Human recombinant Histone Deacetylase 8 (HDAC8) (Homo sapiens (Human), UniProt Q9BY41)
Assay: HDAC8 Enzymatic Assay (HDAC-Glo I/II luminescence)
Type: biochemical
Summary of the method: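 Human recombinant HDAC8 (1.5 nM final) preincubated with compound for 30 min, then reacted with 50 μM Boc-GAK(Ac)-aminoluciferin plus trypsin-containing developer for 15 min at room temperature, pH 8.0, 0.5% DMSO. Luminescence read-out; IC50 from percent control activity versus log concentration.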

[1] = class symbols, Table 14, read-out: HDAC8 IC50

Human recombinant Histone Deacetylase 8 (HDAC8), sequence (Q9BY41 whole entry): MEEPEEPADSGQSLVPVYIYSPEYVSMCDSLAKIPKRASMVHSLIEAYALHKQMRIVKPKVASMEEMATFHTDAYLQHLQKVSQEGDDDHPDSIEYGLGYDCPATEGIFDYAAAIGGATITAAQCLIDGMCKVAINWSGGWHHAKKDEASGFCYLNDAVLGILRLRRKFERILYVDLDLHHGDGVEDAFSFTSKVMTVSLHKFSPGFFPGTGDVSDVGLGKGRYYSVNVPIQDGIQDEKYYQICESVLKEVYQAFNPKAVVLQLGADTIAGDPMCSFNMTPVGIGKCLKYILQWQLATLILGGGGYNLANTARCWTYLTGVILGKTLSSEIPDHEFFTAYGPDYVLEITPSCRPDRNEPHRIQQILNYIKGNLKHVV

Row | Structure (SMILES) | IC50 (HDAC8, read-out: IC50) [nM] | IC50 [1] [nM]
1 | O=C(NO)C(Cc1ccccc1)n1ncc2cc(Cl)ccc21 (stereo not shown) [Compound I-0001, 2-(5-Chloro-1H-indazol-1-yl)-N-hydroxy-3-phenylpropanamide] | 141 | 50 to 200
2 | CCc1ccc2cnn(C(Cc3ccccc3)C(=O)NO)c2c1 (stereo not shown) [Compound I-0018, 2-(6-Ethyl-1H-indazol-1-yl)-N-hydroxy-3-phenylpropanamide] | 443 | 200 to 500
3 | O=C(NO)C(Cc1ccccc1)n1cc2cccc(C(=O)N3CCC4(CCOCC4)CC3)c2n1 (stereo not shown) [Compound I-0175, 2-(7-(3-oxa-9-azaspiro[5.5]undecane-9-carbonyl)-2H-indazol-2-yl)-N-hydroxy-3-phenylpropanamide] | – | > 500
4 | O=C(NO)C(Cc1ccccc1)n1cc2c(Cl)nccc2n1 (stereo not shown) [Compound I-0056, 2-(4-chloro-2H-pyrazolo[4,3-c]pyridin-2-yl)-N-hydroxy-3-phenylpropanamide] | – | > 500
5 | O=C(NO)C(Cc1ccccc1)n1cc2cccc(C(=O)N3CCC4(CC3)COC4)c2n1 (stereo not shown) [Compound I-0174, 2-(7-(2-oxa-7-azaspiro[3.5]nonane-7-carbonyl)-2H-indazol-2-yl)-N-hydroxy-3-phenylpropanamide] | – | > 500
6 | O=C(NO)C(Cc1ccccc1)n1nc2c(-c3ccncc3)cccc2c1C#CC1CC1 (stereo not shown) [Compound I-0154, 2-(3-(cyclopropylethynyl)-7-(pyridin-4-yl)-2H-indazol-2-yl)-N-hydroxy-3-phenylpropanamide] | – | ≤ 50
7 | O=C(NO)C(Cc1ccccc1)n1nc2c(Cl)nccc2c1C#CC1CC1 (stereo not shown) [Compound I-0127, 2-[7-Chloro-3-(cyclopropylethynyl)-2H-pyrazolo[3,4-c]pyridin-2-yl]-N-hydroxy-3-phenylpropanamide] | 5.7 | ≤ 50
8 | O=C(NO)C(Cc1ccccc1)c1cnc2cc(Cl)ccn12 (stereo not shown) [Compound I-0093, 2-(7-Chloroimidazo[1,2-a]pyridin-3-yl)-N-hydroxy-3-phenylpropanamide] | 22 | ≤ 50
9 | O=C(NCC1CCOCC1)c1cccc2cn(C(Cc3ccccc3)C(=O)NO)nc12 (stereo not shown) [Compound I-0177, 2-(1-(hydroxyamino)-1-oxo-3-phenylpropan-2-yl)-N-((tetrahydro-2H-pyran-4-yl)methyl)-2H-indazole-7-carboxamide] | – | ≤ 50
10 | CN1CCC(c2ccc3cn(C(Cc4ccccc4)C(=O)NO)nc3c2)CC1 (stereo not shown) [Compound I-0048, N-hydroxy-2-(6-(1-methylpiperidin-4-yl)-2H-indazol-2-yl)-3-phenylpropanamide] | – | > 500
11 | O=C(NO)C(Cc1ccccc1)n1cc2cc(Br)ncc2n1 (stereo not shown) [Compound I-0100, 2-(5-bromo-2H-pyrazolo[3,4-c]pyridine-2-yl)-N-hydroxy-3-phenylpropanamide] | – | > 500
12 | O=C(NO)C(Cc1ccccc1)n1nc2ccc(-c3c(F)cccc3F)cc2c1C#CC1CC1 (stereo not shown) [Compound I-0027, 2-(3-(cyclopropylethynyl)-5-(2,6-difluorophenyl)-2H-indazol-2-yl)-N-hydroxy-3-phenylpropanamide] | – | 200 to 500
13 | O=C(NO)C(Cc1ccccc1)n1nc(C#CC2CC2)c2cc(Cl)ccc21 (stereo not shown) [Compound I-0009, 2-(5-chloro-3-(cyclopropylethynyl)-1H-indazol-1-yl)-N-hydroxy-3-phenylpropanamide] | – | 50 to 200
14 | COCc1ccc(-c2ccn3c(C(Cc4ccccc4)C(=O)NO)cnc3c2)cc1 (stereo not shown) [Compound I-0150, N-hydroxy-2-(7-(4-(methoxymethyl)phenyl)imidazo[1,2-a]pyridin-3-yl)-3-phenylpropanamide] | – | > 500
15 | NC(=O)c1ccc(-c2cccn3c(C(Cc4ccccc4)C(=O)NO)cnc23)cc1 (stereo not shown) [Compound I-0167, 4-(3-(1-(hydroxyamino)-1-oxo-3-phenylpropan-2-yl)imidazo[1,2-a]pyridin-8-yl)benzamide] | – | 200 to 500
16 | O=C(NO)C(Cc1ccccc1)n1ncc2cc(-c3c(F)cccc3F)ncc21 (stereo not shown) [Compound I-0087, 2-(5-(2,6-difluorophenyl)-1H-pyrazolo[3,4-c]pyridin-1-yl)-N-hydroxy-3-phenylpropanamide] | – | > 500
17 | Cn1nccc1-c1cccc2c(C#CC3CC3)n(C(Cc3ccccc3)C(=O)NO)nc12 (stereo not shown) [Compound I-0137, 2-(3-(cyclopropylethynyl)-7-(1-methyl-1H-pyrazol-5-yl)-2H-indazol-2-yl)-N-hydroxy-3-phenylpropanamide] | – | ≤ 50
18 | Cn1nccc1-c1nccc2c(C#CC3CC3)n(C(Cc3ccccc3)C(=O)NO)nc12 (stereo not shown) [Compound I-0128, 2-[3-(Cyclopropylethynyl)-7-(1-methyl-1H-pyrazol-5-yl)-2H-pyrazolo[3,4-c]pyridin-2-yl]-N-hydroxy-3-phenylpropanamide] | 4.3 | ≤ 50
19 | O=C(NO)C(Cc1ccccc1)n1cc2cccc(CN3CCC(C(F)(F)F)CC3)c2n1 (stereo not shown) [Compound I-0191, N-hydroxy-3-phenyl-2-(7-((4-(trifluoromethyl)piperidin-1-yl)methyl)-2H-indazol-2-yl)propanamide] | – | > 500
20 | COc1ccc(-c2ccc3nn(C(Cc4ccccc4)C(=O)NO)c(C#CC4CC4)c3c2)cn1 (stereo not shown) [Compound I-0046, 2-(3-(cyclopropylethynyl)-5-(6-methoxypyridin-3-yl)-2H-indazol-2-yl)-N-hydroxy-3-phenylpropanamide] | – | 200 to 500

Row | Structure (SMILES) | IC50 (HDAC8, read-out: IC50) [nM] | IC50 [1] [nM]
21 | O=C(NO)C(Cc1ccccc1)n1ncc2cc(-c3cccnc3)ncc21 (stereo not shown) [Compound I-0095, N-hydroxy-3-phenyl-2-(5-(pyridin-3-yl)-1H-pyrazolo[3,4-c]pyridin-1-yl)propanamide] | – | 200 to 500
22 | Cc1nn(C)c(C)c1-c1cccc2cn(C(Cc3ccccc3)C(=O)NO)nc12 (stereo not shown) [Compound I-0111, N-hydroxy-3-phenyl-2-(7-(1,3,5-trimethyl-1H-pyrazol-4-yl)-2H-indazol-2-yl)propanamide] | – | > 500
23 | Cn1nccc1-c1ccc2nn(C(Cc3ccccc3)C(=O)NO)cc2c1 (stereo not shown) [Compound I-0034, N-hydroxy-2-(5-(1-methyl-1H-pyrazol-5-yl)-2H-indazol-2-yl)-3-phenylpropanamide] | – | 200 to 500
24 | O=C(NO)C(Cc1ccccc1)n1ncc2c(-c3ccccc3)cccc21 (stereo not shown) [Compound I-0079, N-hydroxy-3-phenyl-2-(4-phenyl-1H-indazol-1-yl)propanamide] | – | > 500
25 | O=C(NO)C(Cc1ccccc1)n1ncc2c1CCCC2 (stereo not shown) [Compound I-0201, N-hydroxy-3-phenyl-2-(4,5,6,7-tetrahydro-1H-indazol-1-yl)propanamide] | – | 200 to 500
26 | O=C(NO)C(Cc1ccccc1)c1cnc2cc(-c3cccnc3)ccn12 (stereo not shown) [Compound I-0114, N-hydroxy-3-phenyl-2-(7-(pyridin-3-yl)imidazo[1,2-a]pyridin-3-yl)propanamide] | – | 200 to 500
27 | O=C(NO)C(Cc1ccccc1)n1ncc2cnccc21 (stereo not shown) [Compound I-0042, N-hydroxy-3-phenyl-2-(1H-pyrazolo[4,3-c]pyridin-1-yl)propanamide] | – | 200 to 500
28 | O=C(NO)C(Cc1ccccc1)n1cc2cc(Br)cnc2n1 (stereo not shown) [Compound I-0123, 2-(5-bromo-2H-pyrazolo[3,4-b]pyridin-2-yl)-N-hydroxy-3-phenylpropanamide] | – | 200 to 500
29 | CC1CCN(c2cccc3nn(C(Cc4ccccc4)C(=O)NO)cc23)CC1 (stereo not shown) [Compound I-0145, N-hydroxy-2-(4-(4-methylpiperidin-1-yl)-2H-indazol-2-yl)-phenylpropanamide] | 717 | –
30 | O=C(NO)C(Cc1ccccc1)n1nc2ccc(Cl)cc2c1C#CC1CC1 (stereo not shown) [Compound I-0005, 2-[5-Chloro-3-(cyclopropylethynyl)-2H-indazol-2-yl]-N-hydroxy-3-phenylpropanamide] | 22 | ≤ 50
31 | O=C(NO)C(Cc1ccccc1)c1cnc2cc(-c3cncnc3)ccn12 (stereo not shown) [Compound I-0112, N-hydroxy-3-phenyl-2-(7-(pyrimidin-5-yl)imidazo[1,2-a]pyridin-3-yl)propanamide] | – | 50 to 200
32 | O=C(NO)C(Cc1ccccc1)n1ccc2cc(Cl)cnc21 (stereo not shown) [Compound I-0195, 2-(5-chloro-1H-pyrrolo[2,3-b]pyridin-1-yl)-N-hydroxy-3-phenylpropanamide] | – | 200 to 500
33 | Cc1cccc2nn(C(Cc3ccccc3)C(=O)NO)cc12 (stereo not shown) [Compound I-0064, N-hydroxy-2-(4-methyl-2H-indazol-2-yl)-3-phenylpropanamide] | – | > 500
34 | O=C(NO)C(Cc1ccccc1)n1nc2ccc(-c3cccnc3)cc2c1C#CC1CC1 (stereo not shown) [Compound I-0045, 2-(3-(cyclopropylethynyl)-5-(pyridin-3-yl)-2H-indazol-2-yl)-N-hydroxy-3-phenylpropanamide] | – | 50 to 200
35 | O=C(NO)C(Cc1ccccc1)n1ncc2cc(-c3c(F)cccc3F)ccc21 (stereo not shown) [Compound I-0014, 2-(5-(2,6-difluorophenyl)-1H-indazol-1-yl)-N-hydroxy-3-phenylpropanamide] | – | 200 to 500
36 | NC(=O)c1cccc(-c2cccn3c(C(Cc4ccccc4)C(=O)NO)cnc23)c1 (stereo not shown) [Compound I-0169, 3-(3-(1-(hydroxyamino)-1-oxo-3-phenylpropan-2-yl)imidazo[1,2-a]pyridin-8-yl)benzamide] | – | 200 to 500
37 | Cc1cccc2cn(C(Cc3ccccc3)C(=O)NO)nc12 (stereo not shown) [Compound I-0078, N-hydroxy-2-(7-methyl-2H-indazol-2-yl)-3-phenylpropanamide] | – | > 500
38 | O=C(NO)C(Cc1ccccc1)n1cc2cc(Br)ccc2n1 (stereo not shown) [Compound I-0024, 2-(5-bromo-2H-indazol-2-yl)-N-hydroxy-3-phenylpropanamide] | – | > 500
39 | CC(C)Oc1ccc(-c2cccc3nn(C(Cc4ccccc4)C(=O)NO)cc23)cn1 (stereo not shown) [Compound I-0146, N-hydroxy-2-(4-(6-isopropoxypyridin-3-yl)-2H-indazol-2-yl)-3-phenylpropanamide] | – | 200 to 500
40 | Cn1nccc1-c1ccc2nn(C(Cc3ccccc3)C(=O)NO)c(C#CC3CC3)c2c1 (stereo not shown) [Compound I-0028, 2-(3-(cyclopropylethynyl)-5-(1-methyl-1H-pyrazol-5-yl)-2H-indazol-2-yl)-N-hydroxy-3-phenylpropanamide] | – | ≤ 50
